Source: publication PMC9415638, “Discovery of novel thiazolyl-pyrazolines as dual EGFR and VEGFR-2 inhibitors endowed with in vitro antitumor activity towards non-small lung cancer” (Journal of Enzyme Inhibition and Medicinal Chemistry, 2022)
Where two headings read alike, the source gives them in different places.

Key:
[1] = test system: H441 lung cancer cells; assay: Anti-proliferative MTT assay; settings: for inhibition at 10 µM: read-out: % Growth inhibition ± SEM H441
[2] = target: EGFR (Homo sapiens, UniProt P00533); assay: EGFR kinase assay (PGT-coated 96-well plates); type: biochemical; settings: read-out: IC50 (nM) ± SEM EGFR
Sequence of EGFR (P00533 25-1210): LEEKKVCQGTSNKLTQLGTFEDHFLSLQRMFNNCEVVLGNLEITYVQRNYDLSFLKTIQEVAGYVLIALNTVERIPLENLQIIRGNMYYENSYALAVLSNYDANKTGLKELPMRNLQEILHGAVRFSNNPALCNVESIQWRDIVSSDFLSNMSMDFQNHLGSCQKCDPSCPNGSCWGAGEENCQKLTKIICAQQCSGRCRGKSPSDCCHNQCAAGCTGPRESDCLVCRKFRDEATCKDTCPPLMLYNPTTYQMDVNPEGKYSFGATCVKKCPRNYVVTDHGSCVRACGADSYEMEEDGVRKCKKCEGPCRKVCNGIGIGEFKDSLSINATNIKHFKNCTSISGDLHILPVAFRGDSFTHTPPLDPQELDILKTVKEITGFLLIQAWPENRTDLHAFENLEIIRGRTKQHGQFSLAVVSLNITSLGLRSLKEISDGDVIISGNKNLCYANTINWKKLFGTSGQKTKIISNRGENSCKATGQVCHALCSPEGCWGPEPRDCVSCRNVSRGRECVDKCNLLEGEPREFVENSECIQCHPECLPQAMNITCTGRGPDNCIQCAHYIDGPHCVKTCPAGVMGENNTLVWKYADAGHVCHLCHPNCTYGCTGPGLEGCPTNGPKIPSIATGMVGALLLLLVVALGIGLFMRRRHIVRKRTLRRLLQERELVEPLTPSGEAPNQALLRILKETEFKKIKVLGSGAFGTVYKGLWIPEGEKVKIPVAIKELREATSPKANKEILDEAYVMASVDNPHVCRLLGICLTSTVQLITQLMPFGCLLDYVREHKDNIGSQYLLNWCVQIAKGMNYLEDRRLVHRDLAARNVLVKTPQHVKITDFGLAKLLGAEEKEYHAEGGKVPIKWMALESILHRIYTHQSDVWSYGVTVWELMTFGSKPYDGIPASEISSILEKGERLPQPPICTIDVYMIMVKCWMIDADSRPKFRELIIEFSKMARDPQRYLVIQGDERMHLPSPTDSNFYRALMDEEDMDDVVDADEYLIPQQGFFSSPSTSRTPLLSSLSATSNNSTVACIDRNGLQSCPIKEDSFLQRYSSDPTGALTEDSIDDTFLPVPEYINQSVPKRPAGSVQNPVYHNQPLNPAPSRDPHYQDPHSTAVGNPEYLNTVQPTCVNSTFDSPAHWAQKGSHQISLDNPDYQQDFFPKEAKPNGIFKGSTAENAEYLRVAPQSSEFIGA
Description: (§1) The EGFR kinase assay was carried out in 96-well plates coated with PGT (poly l-glutamic acid l-tyrosine, 4:1, Sigma Aldrich, St. Louis, MO) as previously described. IC50 values were calculated using GraphPad Prism 5. Each experiment was carried out at least three times. The VEGFR-2 kinase assay was carried out in 96-well streptavidin coated plate using recombinant human VEGFR-2/KDR ELISA kit according to manufacturer’s instructions.

[3] = test system: MCF-7 breast cancer cells; assay: Anti-proliferative MTT assay; type: cell-based; settings: Homo sapiens, MCF7, 24 h, read-out: % Growth inhibition ± SEM MCF-7
Description: (§2) To evaluate the anti-proliferative activity of the synthesised thiazolyl-pyrazoline derivatives (7a–7d, 10a–10d, and 13a–13f), a preliminary in vitro one dose (10 µM) anticancer assay was performed. Nine cell lines derived from five tumour subpanels were examined; leukaemia (K562 and KG-1a), breast (MCF-7, BT-549 and HCC70), lung (A549 and H441), colon (HCT116) and liver (HepG2) cancer cell lines. The compounds were added at a single concentration (10 µM) and the cultures were incubated for 24 h, then the per cent growth inhibition (%GI) was calculated.
(§3) Human leukaemia (K562 and KG-1a), breast (MCF-7, BT-549 and HCC70), lung (A549, H441, NCI-H1650 and NCI-H1975), colon (HCT116), liver (HepG2) cancer cell lines and WI-38 human lung fibroblast cell line were obtained from the American Type Culture Collection (ATCC; Manassas, VA) and were cultured in their suitable media containing 10% foetal bovine serum (FBS; Sigma-Aldrich) in a humidified atmosphere with 5% CO2 at 37 °C. Gefitinib and vandetanib were purchased from Sigma-Aldrich. All chemicals used in this study were analytical or cell-culture grade.
(§4) Cytotoxicity was measured using the MTT assay. Human leukaemia (K562 and KG-1a), breast (MCF-7, BT-549 and HCC70), lung (A549, H441, NCI-H1650 and NCI-H1975), colon (HCT116), liver (HepG2) cancer cell lines and WI-38 human lung fibroblast cell line were plated at a density of 1 × 10^4 cells per well in 96-well plates overnight and then treated with the compounds. After 24 h treatment, 20 μL of MTT solution (2 mg/mL in phosphate-buffered saline [PBS]) was added to each well and the cells were cultured for another 4 h at 37 °C. The medium was aspirated and 150 μL DMSO was added to solubilise MTT formazan crystals. The plates were then shaken, and the optical density was determined at 570 nm using an ELISA plate reader (Model 550, Bio-Rad, Hercules, CA). At least three independent experiments were performed. The IC50 values were calculated using GraphPad Prism 5 (Version 5.01, GraphPad Software, San Diego, CA).

[4] = test system: K562 leukaemia cells; assay: Anti-proliferative MTT assay; type: cell-based; settings: Homo sapiens, 24 h, read-out: % Growth inhibition ± SEM K562
Description: as §2, §3, §4

[5] = test system: BT-549 breast cancer cells; assay: Anti-proliferative MTT assay; type: cell-based; settings: Homo sapiens, 24 h, read-out: % Growth inhibition ± SEM BT-549
Description: as §2, §3, §4

[6] = test system: HepG2 liver cancer cells; assay: Anti-proliferative MTT assay; type: cell-based; settings: Homo sapiens, 24 h, read-out: % Growth inhibition ± SEM HepG2
Description: as §2, §3, §4

[7] = test system: KG-1a leukaemia cells; assay: Anti-proliferative MTT assay; type: cell-based; settings: Homo sapiens, 24 h, read-out: % Growth inhibition ± SEM KG-1a
Description: as §2, §3, §4

[8] = test system: HCC70 breast cancer cells; assay: Anti-proliferative MTT assay; type: cell-based; settings: Homo sapiens, 24 h, read-out: % Growth inhibition ± SEM HCC70
Description: as §2, §3, §4

[9] = test system: HCT116 colon cancer cells; assay: Anti-proliferative MTT assay; type: cell-based; settings: Homo sapiens, HCT-116, 24 h, read-out: % Growth inhibition ± SEM HCT116
Description: as §2, §3, §4

[10] = target: T1, recombinant human VEGFR-2/KDR (Homo sapiens, UniProt P35968); assay: VEGFR-2 kinase assay (VEGFR-2/KDR ELISA kit); type: biochemical; settings: read-out: IC50 (nM) ± SEM VEGFR-2
T1 construct: purchased
T1 sequence (P35968 20-1356): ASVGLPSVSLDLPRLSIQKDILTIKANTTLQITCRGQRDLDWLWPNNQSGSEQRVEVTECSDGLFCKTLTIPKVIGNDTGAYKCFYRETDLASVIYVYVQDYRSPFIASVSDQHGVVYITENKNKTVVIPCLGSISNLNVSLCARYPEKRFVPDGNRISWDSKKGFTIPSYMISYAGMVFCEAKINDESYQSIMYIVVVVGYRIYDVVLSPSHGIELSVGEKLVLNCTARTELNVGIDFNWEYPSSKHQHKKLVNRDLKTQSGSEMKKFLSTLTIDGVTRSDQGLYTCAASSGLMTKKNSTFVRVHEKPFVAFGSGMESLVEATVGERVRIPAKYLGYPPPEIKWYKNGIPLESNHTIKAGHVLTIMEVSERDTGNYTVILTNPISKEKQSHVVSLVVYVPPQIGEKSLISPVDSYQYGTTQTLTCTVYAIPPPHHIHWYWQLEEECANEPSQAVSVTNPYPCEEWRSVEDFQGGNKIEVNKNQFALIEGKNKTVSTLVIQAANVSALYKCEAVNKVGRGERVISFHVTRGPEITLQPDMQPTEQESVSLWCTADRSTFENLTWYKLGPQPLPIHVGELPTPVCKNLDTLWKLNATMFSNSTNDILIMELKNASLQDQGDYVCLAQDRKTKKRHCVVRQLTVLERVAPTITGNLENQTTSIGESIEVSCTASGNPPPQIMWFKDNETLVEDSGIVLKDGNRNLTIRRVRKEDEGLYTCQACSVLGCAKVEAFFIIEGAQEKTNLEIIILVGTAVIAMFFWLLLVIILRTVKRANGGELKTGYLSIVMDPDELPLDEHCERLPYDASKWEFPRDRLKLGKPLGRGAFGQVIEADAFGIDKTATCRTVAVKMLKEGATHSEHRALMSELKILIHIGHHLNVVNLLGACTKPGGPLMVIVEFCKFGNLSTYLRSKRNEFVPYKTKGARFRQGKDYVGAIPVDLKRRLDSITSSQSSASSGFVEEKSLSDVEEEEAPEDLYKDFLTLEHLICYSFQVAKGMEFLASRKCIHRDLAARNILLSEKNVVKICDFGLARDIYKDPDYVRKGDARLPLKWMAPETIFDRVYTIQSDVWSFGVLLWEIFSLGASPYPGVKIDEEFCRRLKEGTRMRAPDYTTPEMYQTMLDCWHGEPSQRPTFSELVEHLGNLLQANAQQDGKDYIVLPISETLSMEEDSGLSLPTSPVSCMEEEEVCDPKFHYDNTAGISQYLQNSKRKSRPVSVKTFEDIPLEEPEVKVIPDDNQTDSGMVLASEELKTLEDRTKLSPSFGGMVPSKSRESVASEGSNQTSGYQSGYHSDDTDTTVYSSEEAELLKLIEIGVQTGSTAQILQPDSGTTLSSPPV
Description: as §1

[11] = test system: WI-38 human lung fibroblast cells; assay: MTT cytotoxicity assay on normal cells; type: cell-based; settings: Homo sapiens, WI-38; normal lung fibroblasts, MTT, 24 h, n = 3; read-out: IC50 (µM) ± SEM WI-38
Description: All chemicals used in this study were analytical or cell-culture grade.
Cytotoxicity was measured using the MTT assay. […] The medium was aspirated and 150 μL DMSO was added to solubilise MTT formazan crystals. The plates were then shaken, and the optical density was determined at 570 nm using an ELISA plate reader (Model 550, Bio-Rad, Hercules, CA). At least three independent experiments were performed.

[12] = test system: A549 lung cancer cells; assay: Anti-proliferative MTT assay; settings: Homo sapiens, A549, 24 h; for inhibition at 10 µM: read-out: % Growth inhibition ± SEM A549; for IC50: read-out: IC50 (µM) ± SEM A549
[13] = Homo sapiens, NCI-H441, 24 h, read-out: IC50 (µM) ± SEM H441, MTT, 24 h, n = 3

Row | SMILES | inhibition at 10 µM ([1]; Homo sapiens, NCI-H441, 24 h) [%] | IC50 [1, 13] [µM] | IC50 [2] [nM] | melting point [°C] | inhibition at 10 µM [3] [%] | inhibition at 10 µM [4] [%] | inhibition at 10 µM [5] [%] | inhibition at 10 µM [6] [%] | inhibition at 10 µM [7] [%] | inhibition at 10 µM [8] [%] | inhibition at 10 µM [9] [%] | IC50 [10] [nM] | IC50 [11] [µM] | inhibition at 10 µM [12] [%] | IC50 [12] [µM] | IC50 ([1]; read-out: IC50 (µM) ± SEM H441, MTT, 24 h, n = 3) [µM]
1 | COc1ccc(C2CC(c3ccc(Cl)cc3Cl)=NN2c2nc(C)c(N=Nc3ccc(C)cc3)s2)cc1OC (stereo not shown) [Compound 13e, 2-(3-(2,4-Dichlorophenyl)-5-(3,4-dimethoxyphenyl)-4,5-dihydro-1H-pyrazol-1-yl)-4-methyl-5-(p-tolyldiazenyl)thiazole] | 46.9 ± 3.9 | 15.2 ± 3.6 | 67.7 ± 2 | 176 to 177 | 1.8 ± 0.6 | 24 ± 2 | 12.5 ± 1.5 | 0.3 | 15.2 ± 1.8 | 16.1 ± 0.9 | 9.9 ± 0.8 | 216 ± 4.3 | 87 ± 4.2 | 30.3 ± 2.4 | 19.1 ± 1.3 | 
2 | COc1cc2c(Nc3ccc(Br)cc3F)ncnc2cc1OCC1CCN(C)CC1 [Vandetanib, reference compound] |  | 3.9 ± 0.8 |  |  |  |  |  |  |  |  |  |  | 8.6 ± 0.4 |  | 3.4 ± 1 | 
3 | COc1ccc(C2CC(c3ccc(Cl)cc3Cl)=NN2c2nc(C)c(N=Nc3ccccc3)s2)cc1 (stereo not shown) [Compound 13a, 2-(3-(2,4-Dichlorophenyl)-5-(4-methoxyphenyl)-4,5-dihydro-1H-pyrazol-1-yl)-4-methyl-5-(phenyldiazenyl)thiazole] | 22.2 ± 0.9 | > 100 | 973 ± 2 | 168 to 170 | 17.8 ± 1 | 2.2 ± 0.2 | 10.3 ± 1.1 | 15.8 ± 2.2 | 4.1 ± 0.9 | 15.3 ± 1.4 | 19.5 ± 1.4 | 1151 ± 4.3 | > 100 | 11 ± 0.8 | > 100 | 94.4 ± 5.5
4 | COc1ccc(C2CC(c3ccc(Cl)cc3Cl)=NN2c2nc(-c3ccccc3)cs2)cc1OC (stereo not shown) [Compound 7c, 2-(3-(2,4-Dichlorophenyl)-5-(3,4-dimethoxyphenyl)-4,5-dihydro-1H-pyrazol-1-yl)-4-phenylthiazole] | 16.2 ± 0.3 | > 100 | 511.2 ± 3.2 | 120 to 122 | 9.2 ± 0.9 | 5.2 ± 0.5 | 3.1 ± 0.6 | 17.1 ± 2.7 | 4.3 ± 0.7 | 7.3 ± 1.2 | 4.9 ± 0.8 | 915.2 ± 4.3 | > 100 | 8.9 ± 1.1 | > 100 | 
5 | COc1ccc(C2CC(c3ccc(Cl)cc3Cl)=NN2c2nc(-c3ccc(Cl)cc3)cs2)cc1OC (stereo not shown) [Compound 7d, 4-(4-Chlorophenyl)-2-(3-(2,4-dichlorophenyl)-5-(3,4-dimethoxyphenyl)-4,5-dihydro-1H-pyrazol-1-yl)thiazole] | 34.8 ± 2.4 | 29.1 ± 3.5 | 132.9 ± 1.2 | 158 to 159 | 2.2 ± 0.6 | 22 ± 1.6 | 18 ± 2.7 | 5.1 ± 1 | 25.1 ± 2 | 17.3 ± 0.6 | 0.7 | 186 ± 2.3 | 40.1 ± 2.7 | 31.2 ± 1.4 | 20.2 ± 2 | 
